In PubChem BioAssay (NCI):
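Cultured in 96-well plates, cells were exposed to test compound for 48 hours across five concentrations. Definition used: TGI = concentration required for complete inhibition of growth.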

Legend:
Assay in all cases: NCI-60 cell line screen, 48 h
KM12 colon = test system: KM12 colon
XF 498 CNS = test system: XF 498 CNS
COLO 205 colon = test system: COLO 205 colon
OVCAR-3 ovarian = test system: OVCAR-3 ovarian
SF-539 CNS = test system: SF-539 CNS
HCT-15 colon = test system: HCT-15 colon
A549 NSCLC = test system: A549 NSCLC
OVCAR-5 ovarian = test system: OVCAR-5 ovarian
HCT-116 colon = test system: HCT-116 colon
HL-60(TB) leukemia = test system: HL-60(TB) leukemia
OVCAR-4 ovarian = test system: OVCAR-4 ovarian
UACC-257 melanoma = test system: UACC-257 melanoma
DMS 273 small cell lung = test system: DMS 273 small cell lung
SW-620 colon = test system: SW-620 colon
K-562 leukemia = test system: K-562 leukemia
ACHN renal = test system: ACHN renal
DLD-1 colon = test system: DLD-1 colon
SK-OV-3 ovarian = test system: SK-OV-3 ovarian
NCI-H460 lung = test system: NCI-H460 lung
M14 melanoma = test system: M14 melanoma
SR leukemia = test system: SR leukemia
UACC-62 melanoma = test system: UACC-62 melanoma
U251 CNS = test system: U251 CNS
NCI-H226 lung = test system: NCI-H226 lung
HOP-92 NSCLC = test system: HOP-92 NSCLC
SF-295 CNS = test system: SF-295 CNS
HT29 colon = test system: HT29 colon
SNB-75 CNS = test system: SNB-75 CNS
HOP-62 NSCLC = test system: HOP-62 NSCLC
CCRF-CEM leukemia = test system: CCRF-CEM leukemia
HCC-2998 colon = test system: HCC-2998 colon
LXFL 529 NSCLC = test system: LXFL 529 NSCLC
OVCAR-8 ovarian = test system: OVCAR-8 ovarian
EKVX NSCLC = test system: EKVX NSCLC
TK-10 renal = test system: TK-10 renal
SNB-19 CNS = test system: SNB-19 CNS
SK-MEL-5 melanoma = test system: SK-MEL-5 melanoma
RPMI-8226 leukemia = test system: RPMI-8226 leukemia
HOP-18 NSCLC = test system: HOP-18 NSCLC
MOLT-4 leukemia = test system: MOLT-4 leukemia
IGROV1 ovarian = test system: IGROV1 ovarian
A498 renal = test system: A498 renal
NCI-H522 lung = test system: NCI-H522 lung
RXF 393 renal = test system: RXF 393 renal
MALME-3M melanoma = test system: MALME-3M melanoma
SF-268 CNS = test system: SF-268 CNS
KM20L2 colon = test system: KM20L2 colon
LOX IMVI melanoma = test system: LOX IMVI melanoma
CAKI-1 renal = test system: CAKI-1 renal
SK-MEL-28 melanoma = test system: SK-MEL-28 melanoma
786-0 renal = test system: 786-0 renal
SK-MEL-2 melanoma = test system: SK-MEL-2 melanoma
SN12C renal = test system: SN12C renal
UO-31 renal = test system: UO-31 renal
NCI-H23 lung = test system: NCI-H23 lung
HS 578T breast = test system: HS 578T breast
T-47D breast = test system: T-47D breast
MDA-MB-231 breast = test system: MDA-MB-231 breast
MDA-N = test system: MDA-N
PC-3 prostate = test system: PC-3 prostate
BT-549 breast = test system: BT-549 breast
M19-MEL melanoma = test system: M19-MEL melanoma
DU-145 prostate = test system: DU-145 prostate
MCF7 breast = test system: MCF7 breast
SNB-78 CNS = test system: SNB-78 CNS
MDA-MB-435 = test system: MDA-MB-435
NCI/ADR-RES ovarian = test system: NCI/ADR-RES ovarian
DMS 114 small cell lung = test system: DMS 114 small cell lung

Measured: TGI

CC(N)Cc1ccc(Cl)cc1 (configuration not stated)
not listed: HS 578T breast | T-47D breast | MDA-MB-231 breast | MDA-N | PC-3 prostate | BT-549 breast | M19-MEL melanoma | DU-145 prostate | MCF7 breast | SNB-78 CNS | MDA-MB-435 | NCI/ADR-RES ovarian | DMS 114 small cell lung
> 100 µM: all other assays above

COC1(OC)C2(Cl)C(Cl)=C(Cl)C1(Cl)C1c3ccc(C(C)=O)c4cccc(c34)C12 (configuration not stated)
> 83 µM: NCI-H23 lung
81.4 µM: NCI-H226 lung
> 87.4 µM: ACHN renal
87.4 µM: KM20L2 colon
22.1 µM: HOP-92 NSCLC
86.6 µM: MDA-N
99.9 µM: U251 CNS
58 µM: MALME-3M melanoma
> 79.2 µM: CCRF-CEM leukemia
> 80.5 µM: NCI-H460 lung
> 77.6 µM: MOLT-4 leukemia
50.2 µM: SR leukemia
43.5 µM: MDA-MB-435
32.1 µM: A498 renal
20.9 µM: DMS 273 small cell lung
99.3 µM: T-47D breast
> 89.9 µM: SNB-75 CNS
> 96.4 µM: M14 melanoma
50.1 µM: SK-MEL-2 melanoma
34.8 µM: COLO 205 colon
27.7 µM: SK-MEL-5 melanoma
47.3 µM: HL-60(TB) leukemia
> 70.2 µM: NCI-H522 lung
52.7 µM: HCC-2998 colon
not listed: XF 498 CNS | DLD-1 colon
> 100 µM: all other assays above

CCOP(=O)(OCC)/C(C#N)=C\c1ccsc1
not listed: HL-60(TB) leukemia | K-562 leukemia | SR leukemia | CCRF-CEM leukemia | IGROV1 ovarian | A498 renal | HS 578T breast | T-47D breast | MDA-MB-231 breast | MDA-N | PC-3 prostate | BT-549 breast | DU-145 prostate | MCF7 breast | MDA-MB-435 | NCI/ADR-RES ovarian
> 100 µM: all other assays above

C#CCN(N=O)C(=O)NCCCCC(NC(=O)OCc1ccccc1)C(=O)OCc1ccccc1 (configuration not stated)
53.9 µM: OVCAR-3 ovarian
56.6 µM: CAKI-1 renal
81.7 µM: RXF 393 renal
45.1 µM: CCRF-CEM leukemia
71.6 µM: MALME-3M melanoma
50.6 µM: MOLT-4 leukemia
63 µM: M19-MEL melanoma
41.4 µM: LXFL 529 NSCLC
56.9 µM: K-562 leukemia
30 µM: NCI-H522 lung
42.1 µM: HOP-92 NSCLC
68 µM: M14 melanoma
73.5 µM: SF-268 CNS
37.4 µM: SF-539 CNS
31.1 µM: SW-620 colon
74.1 µM: XF 498 CNS
28 µM: LOX IMVI melanoma
85.2 µM: DLD-1 colon
not listed: COLO 205 colon | A549 NSCLC | SR leukemia | HS 578T breast | T-47D breast | MDA-MB-231 breast | MDA-N | PC-3 prostate | BT-549 breast | DU-145 prostate | MCF7 breast | MDA-MB-435 | NCI/ADR-RES ovarian | DMS 114 small cell lung
> 100 µM: all other assays above
